Experimental data taken from US10214531B2 (Institute for Drug Discovery, LLC, priority 2013, dated 2019).
Where a name gives a salt, the structure may show the parent alone.

target: recombinant human AMCase (Homo sapiens, UniProt Q9BZP6); test: Human AMCase Activity Assay; format: biochemical; details: recombinant hAMCase, 4-methylumbelliferyl chitobioside substrate, citrate buffer pH 5.2, 37° C., 60 minutes; read-out: Activity (IC50 value key)
Method: Human AMCase Activity Assay
The assay was run in the 96-well plate format, each reaction in the total volume of 100 μl. 4-Methylumbelliferyl B-D-N,N′ diacetylchitobioside hydrate was used as a substrate for the enzyme. Upon hydrolysis by AMCase, the substrate releases 4-methylumbelliferyl (4MU), when ionized in basic pH, emits fluorescence of 460 nm.
Briefly, 40 μl of a substrate was added to each well, followed by 10 μl of compound dilution and 50 μl of hAMCase recombinant enzyme solution. The reaction was carried out in citrate buffer, pH 5.2, in the dark, at 37° C. for 60 minutes with shaking.

recombinant human AMCase, sequence (Q9BZP6 22-476): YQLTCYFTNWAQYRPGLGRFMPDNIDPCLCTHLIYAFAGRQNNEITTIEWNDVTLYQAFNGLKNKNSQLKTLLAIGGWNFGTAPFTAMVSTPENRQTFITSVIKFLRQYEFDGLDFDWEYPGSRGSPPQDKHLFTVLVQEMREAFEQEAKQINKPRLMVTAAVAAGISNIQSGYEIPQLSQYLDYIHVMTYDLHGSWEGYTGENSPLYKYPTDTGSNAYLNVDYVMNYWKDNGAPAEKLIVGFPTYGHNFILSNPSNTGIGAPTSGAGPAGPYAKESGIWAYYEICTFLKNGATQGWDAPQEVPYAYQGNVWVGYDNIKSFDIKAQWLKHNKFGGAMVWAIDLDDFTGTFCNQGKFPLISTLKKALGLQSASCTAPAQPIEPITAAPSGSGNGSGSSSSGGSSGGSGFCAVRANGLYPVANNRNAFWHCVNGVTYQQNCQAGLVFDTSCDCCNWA

IC50 | SMILES
0.1 to 1 µM | CCC(Cc1ccc(Cl)cc1)N(CC)C1CCN(c2nc(N)n[nH]2)CC1 (stereo not drawn) [Example 232, 1-(3-amino-1H-1,2,4-triazol-5-yl)-N-(1-(4-chlorophenyl)butan-2-yl)-N-ethylpiperidin-4-amine dihydrochloride]
1 to 10 µM | C[C@H](Cc1ccc(Cl)cc1)N(C)C1CCN(c2nc(N)n[nH]2)CC1 [Example 139, (R)-1-(3-amino-1H-1,2,4-triazol-5-yl)-N-(1-(4-chlorophenyl)propan-2-yl)-N-methylpiperidin-4-amine dihydrochloride]
< 0.1 µM | Nc1n[nH]c(N2CCC(N(CCc3ccc(Cl)cc3)Cc3ccncc3)CC2)n1 [Example 108, 1-(3-amino-1H-1,2,4-triazol-5-yl)-N-(4-chlorophenethyl)-N-(pyridin-4-ylmethyl) piperidin-4-amine]
10 to 100 µM | Nc1n[nH]c(N2CCC(N(CCc3ccc(Cl)cc3)CC(F)(F)F)CC2)n1 [Example 186, 1-(3-amino-1H-1,2,4-triazol-5-yl)-N-(4-chlorophenethyl)-N-(2,2,2-trifluoroethyl)piperidin-4-amine hydrochloride]
1 to 10 µM | Nc1n[nH]c(N2CCC(NS(=O)(=O)Cc3cccc(C(F)(F)F)c3)CC2)n1 [Example 192, N-(1-(3-amino-1H-1,2,4-triazol-5-yl)piperidin-4-yl)-1-(3-(trifluoromethyl)phenyl)methanesulfonamide]
> 100 µM | Cc1ccc(C)c(CNC(=O)C2CCN(c3nc(N)n[nH]3)CC2)c1 [Example 204, 1-(3-amino-1H-1,2,4-triazol-5-yl)-N-(2,5-dimethylbenzyl)piperidine-4-carboxamide]
1 to 10 µM | CCC(Cc1ccc(Cl)cc1)N(C)C1CCN(c2nc(N)n[nH]2)CC1 (stereo not drawn) [Example 160, 1-(3-amino-1H-1,2,4-triazol-5-yl)-N-(1-(4-chlorophenyl)butan-2-yl)-N-methylpiperidin-4-amine]
1 to 10 µM | Nc1n[nH]c(N2CCC(NS(=O)(=O)Cc3cccc(Br)c3)CC2)n1 [Example 191, N-(1-(3-amino-1H-1,2,4-triazol-5-yl)piperidin-4-yl)-1-(3-bromophenyl)methanesulfonamide]
10 to 100 µM | Nc1n[nH]c(N2CCN(C(=O)[C@@H](O)Cc3ccc(Cl)cc3)CC2)n1 [Example 221, (S)-1-(4-(3-amino-1H-1,2,4-triazol-5-yl)piperazin-1-yl)-3-(4-chlorophenyl)-2-hydroxypropan-1-one]
> 100 µM | CN(Cc1ccc(Cl)cc1)C1CCN(c2nc(N)n[nH]2)CC1 [Example 148, 1-(3-amino-1H-1,2,4-triazol-5-yl)-N-(4-chlorobenzyl)-N-methylpiperidin-4-amine dihydrochloride]
10 to 100 µM | Nc1n[nH]c(N2CCC(NS(=O)(=O)Cc3ccc(F)cc3)CC2)n1 [Example 57, N-(1-(3-amino-1H-1,2,4-triazol-5-yl)piperidin-4-yl)-1-(4-fluorophenyl)methanesulfonamide]
> 100 µM | Nc1n[nH]c(N2CCC(CNCc3ccc(Br)cc3)CC2)n1 [Example 254, 5-(4-(((4-bromobenzyl)amino)methyl)piperidin-1-yl)-1H-1,2,4-triazol-3-amine]
10 to 100 µM | CN(C)c1ccc(CCN(C)C2CCN(c3nc(N)n[nH]3)CC2)cc1 [Example 178, 1-(3-amino-1H-1,2,4-triazol-5-yl)-N-(4-(dimethylamino)phenethyl)-N-methylpiperidin-4-amine]
> 100 µM | CN(Cc1nc2ccccc2[nH]1)C1CCN(c2nc(N)n[nH]2)CC1 [Example 136, N-((1H-benzo[d]imidazol-2-yl)methyl)-1-(3-amino-1H-1,2,4-triazol-5-yl)-N-methylpiperidin-4-aminetrihydrochloride]
> 100 µM | Nc1n[nH]c(N2CCN(CCOc3ccc(F)cc3)CC2)n1 [Example 1, 5-(4-(2-(4-fluorophenoxy)ethyl)piperazin-1-yl)-1H-1,2,4-triazol-3-amine]
1 to 10 µM | Nc1n[nH]c(N2CCC(NCCc3ccc(Cl)cc3)CC2)n1 [Example 88, 1-(3-amino-1H-1,2,4-triazol-5-yl)-N-(4-chlorophenethyl)piperidin-4-amine]
> 100 µM | Nc1n[nH]c(N2CCC(CNC(=O)c3ccc(F)cc3F)CC2)n1 [Example 213, N-((1-(3-amino-1H-1,2,4-triazol-5-yl)piperidin-4-yl)methyl)-2,4-difluorobenzamide]
> 100 µM | CN(C1CCN(c2nc(N)n[nH]2)CC1)S(=O)(=O)Cc1cccc(Cl)c1 [Example 248, N-(1-(3-amino-1H-1,2,4-triazol-5-yl)piperidin-4-yl)-2-(3-chlorophenyl)-N-methylmethanesulfonamide hydrochloride]
> 100 µM | Nc1n[nH]c(N2CCC(C(=O)NCc3cccc(F)c3)CC2)n1 [Example 196, 1-(3-amino-1H-1,2,4-triazol-5-yl)-N-(3-fluorobenzyl)piperidine-4-carboxamide]

The remaining lines, values behind:

SMILES | IC50
Nc1n[nH]c(N2CCN(CCCc3ccc(C(F)(F)F)cc3)C(CCCO)C2)n1 (stereo not drawn) [Example 223, 3-(4-(3-amino-1H-1,2,4-triazol-5-yl)-1-(3-(4-(trifluoromethyl)phenyl)propyl)piperazin-2-yl)propan-1-ol] | 1 to 10 µM
C[C@H](CN1CCN(c2nc(N)n[nH]2)CC1)Oc1ccc(Cl)cc1 [Example 64, (R)-5-(4-(2-(4-chlorophenoxy)propyl)piperazin-1-yl)-1H-1,2,4-triazol-3-amine] | 10 to 100 µM
Cc1ccc(OC(C)C(=O)N2CCN(c3nc(N)n[nH]3)CC2)c(Cl)c1 (stereo not drawn) [Example 45, 1-(4-(3-amino-1H-1,2,4-triazol-5-yl)piperazin-1-yl)-2-(2-chloro-4-methylphenoxy)propan-1-one] | > 100 µM
Nc1n[nH]c(N2CCN(CCO)CC2)n1 [Example 77, 2-(4-(3-amino-1H-1,2,4-triazol-5-yl)piperazin-1-yl)ethanol] | > 100 µM
Nc1n[nH]c(N2CCC(N(CCc3ccc(Cl)cc3)Cc3ccc(Cl)cc3Cl)CC2)n1 [Example 163, 1-(3-amino-1H-1,2,4-triazol-5-yl)-N-(4-chlorophenethyl)-N-(2,4-dichlorobenzyl)piperidin-4-amine] | < 0.1 µM
Nc1n[nH]c(N2CCN(CCOc3ccccc3F)CC2)n1 [Example 85, 5-(4-(2-(2-fluorophenoxy)ethyl)piperazin-1-yl)-1H-1,2,4-triazol-3-amine] | 10 to 100 µM
Nc1n[nH]c(N2CCN(C(=O)[C@@H](N)Cc3ccccc3Cl)CC2)n1 [Example 75-2, (S)-2-amino-1-(4-(3-amino-1H-1,2,4-triazol-5-yl)piperazin-1-yl)-3-(2-chlorophenyl)propan-1-one dihydrochloride] | > 100 µM
CC(=O)NC(CC(=O)N1CCN(c2nc(N)n[nH]2)CC1)c1cccc(F)c1 (stereo not drawn) [Example 222, N-(3-(4-(3-amino-1H-1,2,4-triazol-5-yl)piperazin-1-yl)-1-(3-fluorophenyl)-3-oxopropyl)acetamide] | > 100 µM
COc1ccc(OCCN2CCN(c3nc(N)n[nH]3)CC2)cc1 [Example 81, 5-(4-(2-(4-methoxyphenoxy)ethyl)piperazin-1-yl)-1H-1,2,4-triazol-3-amine] | 10 to 100 µM
CC(Oc1cccc(F)c1F)C(=O)N1CCN(c2nc(N)n[nH]2)CC1 (stereo not drawn) [Example 37, 1-(4-(3-amino-1H-1,2,4-triazol-5-yl)piperazin-1-yl)-2-(2,3-difluorophenoxy)propan-1-one] | > 100 µM
Nc1n[nH]c(N2CCC(c3nc(-c4ccc5c(c4)OCO5)no3)CC2)n1 [Example 41, 5-(4-(3-(benzo[d][1,3]dioxol-5-yl)-1,2,4-oxadiazol-5-yl)piperidin-1-yl)-1H-1,2,4-triazol-3-amine] | > 100 µM
CC(COc1ccc(Br)cc1)N1CCN(c2nc(N)n[nH]2)CC1 (stereo not drawn) [Example 20-2, 5-(4-(1-(4-bromophenoxy)propan-2-yl)piperazin-1-yl)-1H-1,2,4-triazol-3-amine] | 10 to 100 µM
Cc1ccc(OC(C)C(=O)N2CCN(c3nc(N)n[nH]3)CC2)c(C)c1 (stereo not drawn) [Example 35, 1-(4-(3-amino-1H-1,2,4-triazol-5-yl)piperazin-1-yl)-2-(2,4-dimethylphenoxy)propan-1-one] | > 100 µM
Cn1nc(N2CCN(CCOc3ccc(Br)cc3)CC2)nc1N [Example 27-1, 3-(4-(2-(4-bromophenoxy)ethyl)piperazin-1-yl)-1-methyl-1H-1,2,4-triazol-5-amine] | > 100 µM
Nc1n[nH]c(N2CCN(C(=O)c3cc4ccccc4o3)CC2)n1 [Example 48, (4-(3-amino-1H-1,2,4-triazol-5-yl)piperazin-1-yl)(benzofuran-2-yl)methanone] | > 100 µM
COc1cccc(CCN(C)C2CCN(c3nc(N)n[nH]3)CC2)c1OC [Example 177, 1-(3-amino-1H-1,2,4-triazol-5-yl)-N-(2,3-dimethoxyphenethyl)-N-methylpiperidin-4-amine] | 10 to 100 µM
Nc1n[nH]c(N2CCN(C(=O)CC(N)c3cccc(F)c3)CC2)n1 (stereo not drawn) [Example 233, 3-amino-1-(4-(3-amino-1H-1,2,4-triazol-5-yl)piperazin-1-yl)-3-(3-fluorophenyl)propan-1-one] | > 100 µM
COc1ccc(C(=O)NCC2CCN(c3nc(N)n[nH]3)CC2)cc1OC [Example 211, N-((1-(3-amino-1H-1,2,4-triazol-5-yl)piperidin-4-yl)methyl)-3,4-dimethoxybenzamide] | > 100 µM
CN(CCc1ccc(Br)cc1)C1CCN(c2nc(N)n[nH]2)CC1CCCO (stereo not drawn) [Example 246, 3-(1-(3-amino-1H-1,2,4-triazol-5-yl)-4-((4-bromophenethyl)(methyl)amino)piperidin-3-yl)propan-1-ol] | < 0.1 µM
Nc1n[nH]c(N2CCC(N(CCc3ccc(Cl)cc3)Cc3ccc(Cl)c(C(F)(F)F)c3)CC2)n1 [Example 126, 1-(3-amino-1H-1,2,4-triazol-5-yl)-N-(4-chloro-3-(trifluoromethyl)benzyl)-N-(4-chlorophenethyl)piperidin-4-amine] | < 0.1 µM
